{"source": "patent US7034045B1", "about": "“Monofluoroalkyl derivatives” (Eli Lilly and Company, priority 1999, dated 2006)", "data": [{"smiles": "CC(C)S(=O)(=O)NCC(C)(F)c1ccc(-c2ccc(CC#N)cc2)cc1", "note": "(stereo not shown) [Example 9, 2-{4-[4-(1-Fluoro-1-methyl-2-{[(methylethyl)sulfonyl]amino}ethyl)phenyl]phenyl}ethanenitrile]", "values": [{"measurement": "melting point", "value": "155 to 157", "unit": "°C"}]}]}
